{"source": "patent US6576662B2", "about": "“Compounds having anticancer activity : process for their preparation and pharmaceutical compositions containing them” (Dr. Reddy's Laboratories Limited, priority 2000, dated 2003)", "key": {"[1]": {"tested_on": "P388 lymphocytic leukemia", "settings": "P388 cells; cited from earlier work"}, "[2]": {"tested_on": "KB", "settings": "KB cells; cited from earlier work"}, "[3]": {"tested_on": "Human lymphocytes", "experiment": "Lymphocyte proliferation, tritiated thymidine incorporation", "assay_type": "cell-based", "settings": "Concentration 1 μM; human lymphocytes with Phytohemagglutitin A", "method": "Human lymphocytes were isolated from whole blood by using Ficoll Hypaque Plus (Amersham). On day one, 1 million lymphocytes were seeded into each well of 96 well plate in 100 μL volume of RPMI 1640 medium containing 10% FCS and Phytohemagglutitin A at 1 μg/well concentration. Plates were incubated at 37° C. in CO2 incubator for 24 h. Test compounds at various concentrations were added to test wells and only medium with vehicle was added to control wells. After 48 h of incubation […] of tritiated thymidine was added to each well. After 24 h of thymidine addition the cells were harvested and the incorporated radioactivity was determined. Stimulation Index (SI) was calculated using the formula, [formula]\nA^T=Average CPM of treated wells,\nA^C=Average CPM of control wells."}, "[4]": {"tested_on": "SKOV-3", "experiment": "in vitro anti-cancer screen, Sulforhodamine B method", "assay_type": "cell-based, human", "settings": "OVARIAN: SKOV-3; 48 h incubation; read-out: GROWTH INHIBITION (GI 50)", "method": "(§1) Each test compound was screened against a battery of cell lines representing eight different types of cancers. In a typical procedure, 1×10^4 cells were seeded into each well of 96 well plate in 100 μL volume of RPMI 1640 medium containing antibiotics and 10% FCS.\n(§2) The plates were incubated at 37° C. in presence of CO2. After 24 h, test compounds were evaluated at five 10 fold dilutions ranging from 100 to 0.01 μM. To each test well 100 μL of test compound solution was added and medium with vehicle was added to control wells and the plates were further incubated. After 48 h of incubation, plates were terminated by Sulforhodamine B method.\n(§3) The optical density which is proportional to protein mass, is then-read by automated spectrophotometric plate reader at a wavelength of 515 nm."}, "[5]": {"tested_on": "A498", "experiment": "in vitro anti-cancer screen, Sulforhodamine B method", "assay_type": "cell-based, human", "settings": "RENAL: A498; 48 h incubation; read-out: GROWTH INHIBITION (GI 50)", "method": "as §1, §2, §3"}, "[6]": {"tested_on": "MCF-7/ADR", "experiment": "in vitro anti-cancer screen, Sulforhodamine B method", "assay_type": "cell-based, human", "settings": "BREAST: MCF-7/ADR; 48 h incubation; read-out: GROWTH INHIBITION (GI 50)", "method": "as §1, §2, §3"}, "[7]": {"tested_on": "M14", "experiment": "in vitro anti-cancer screen, Sulforhodamine B method", "assay_type": "cell-based, human", "settings": "MELANOMA: M14; 48 h incubation; read-out: GROWTH INHIBITION (GI 50)", "method": "as §1, §2, §3"}, "[8]": {"tested_on": "DU145", "experiment": "in vitro anti-cancer screen, Sulforhodamine B method", "assay_type": "cell-based, human", "settings": "PROSTATE: DU145; 48 h incubation; read-out: GROWTH INHIBITION (GI 50)", "method": "as §1, §2, §3"}, "[9]": {"tested_on": "H522", "experiment": "in vitro anti-cancer screen, Sulforhodamine B method", "assay_type": "cell-based, human", "settings": "LUNG: H522; 48 h incubation; read-out: GROWTH INHIBITION (GI 50)", "method": "as §1, §2, §3"}, "[10]": {"tested_on": "U251", "experiment": "in vitro anti-cancer screen, Sulforhodamine B method", "assay_type": "cell-based, human", "settings": "CNS: U251; 48 h incubation; read-out: GROWTH INHIBITION (GI 50)", "method": "as §1, §2, §3"}, "[11]": {"tested_on": "SW-620", "experiment": "in vitro anti-cancer screen, Sulforhodamine B method", "assay_type": "cell-based, human", "settings": "COLON: SW-620; 48 h incubation; read-out: GROWTH INHIBITION (GI 50)", "method": "as §1, §2, §3"}, "[12]": {"tested_on": "HIV-1/MN", "experiment": "Anti HIV activity, P24 antigen in infected PM-1 cells", "assay_type": "cell-based", "settings": "Concentration 1 μM; PM-1 cells infected with HIV-1/MN, 96 h; P24 antigen corrected by MTT", "method": "Human CD4+T cell line PM-1 used in the assay was cultured in RPMI-1640 medium containing 10% Fetal bovine serum, 2 g/L sodium bicarbonate, 100,000 units/L Penicillin-G and 100 mg/L streptomycin. Healthy PM-1 cells were plated on the first day in a 96 well plate at […]. After 24 h HIV-1/MN was added to the culture and incubated for 2 h for infection. Cells were washed twice with PBS to remove the virus in the culture. Different concentrations of DRF compounds ranging from 10^−4 to 10^−8M were added to the culture and incubated for 96 h. The viability of cells was then assessed by standard MTT assay and the viral antigen P24 levels were estimated by ELSA method. Based on the MTT assay values the P 24 antigen values were corrected. All the samples were tested in triplicates and the average was used for calculations. AZT was used as standard compound for comparision."}, "[13]": {"tested_on": "HIV-1(IIIB)", "settings": "cited from earlier work"}}, "data": [{"compound": "C=C1CC[C@@H]2[C@](C)(CO)[C@H](O)CC[C@@]2(C)[C@@H]1C/C=C1/C(=O)OC[C@H]1O", "note": "[Andrographolide]", "values": [{"measurement": "cytotoxic activity", "setting": "[1]", "value": "potent cytotoxic activity"}, {"measurement": "cytotoxic activity", "setting": "[2]", "value": "potent cytotoxic activity"}]}, {"compound": "C=C1CCC2C(C)(COC(C)=O)C(OC(C)=O)CCC2(C)C1CC(NCc1ccccc1)C1=CCOC1=O", "note": "(stereo not shown) [Example 1, 3,19-Diacetyl-12-(N-benzylamino)-14-deoxy andrographolide]", "values": [{"measurement": "Stimulation Index (SI)", "setting": "[3]", "value": 123}, {"measurement": "GI50", "setting": "[4]", "value": 0.3, "unit": "µM"}, {"measurement": "GI50", "setting": "[5]", "value": 5, "unit": "µM"}, {"measurement": "GI50", "setting": "[6]", "value": 8, "unit": "µM"}, {"measurement": "GI50", "setting": "[7]", "value": 5, "unit": "µM"}, {"measurement": "GI50", "setting": "[8]", "value": 7, "unit": "µM"}, {"measurement": "GI50", "setting": "[9]", "value": 9, "unit": "µM"}, {"measurement": "GI50", "setting": "[10]", "value": 0.2, "unit": "µM"}, {"measurement": "GI50", "setting": "[11]", "value": 4, "unit": "µM"}, {"measurement": "Percentage Inhibition", "setting": "[12]", "value": 73.94}]}, {"compound": "dehydroandrographolide succinic acid monoester [DASM]", "values": [{"measurement": "minimal concentration inhibitory to HIV-1(IIIB)", "setting": "[13]", "value": "1.6 to 3.1", "unit": "µg/mL"}]}]}
